What was measured:
[1] = test system: colon cancer cells; test: addition of butyrate, apoptosis of colon cancer cells in vitro; assay type: cell-based, human
Procedure: The plate of cancer cells containing 3×10^5 cells per well is incubated overnight to allow the cells to adhere. Then, the different concentrations of butyric acid (Sigma, St-Louis, USA) are added to the wells containing the adherent cells and the culture medium, the complete RPMI. After this addition, a 48 hour incubation is done in order to measure the percentage of apoptosis according to the technique described hereinafter.
A dose of 5FU (100 μg/mL) as well as different doses (2 mM and 4 mM) of butyric acid (ba) are added to the cancerous colon cells. Apoptosis is measures after a 48 hour incubation.

[2] = test system: human colon cancer; settings: mice; cited from earlier work
[3] = test system: LS 513 cells; test: apoptosis / cell cycle by flow cytometry with propidium iodide; assay type: cell-based, human; settings: in the presence of intact (live or irradiated) bacteria; dose dependent
Procedure: A concentration of 5×10^4 cells per mL, with 6 mL per well, is used in order to obtain 3×10^5 cells per sample. The cells are prepared as indicated above. The different products are added to the wells, and an incubation of 48 hours is done. Following the incubation, the supernatants of the cells are collected in different 15 mL tubes and centrifuged at 1500 RPM during 5 minutes. The cellular pellets are then collected by decantation of the supernatant and put on ice. This stage consists in recuperating the cells in suspension. Afterwards, the adherent cellular sheet is washed with 0.5 mL trypsin-EDTA, then 0.2 mL trypsin-EDTA is added to each well to allow the cells to detach when they are incubated for around 8 minutes in the incubator at 37° C. The cells are suspended in 3 mL of complete RPMI 10% FCS to stop the enzymatic activity of trypsin. […] Different peaks are formed due to the differences in fluorescence existing between each phase of the cellular cycle. The more the content of intact DNA is high, the more the fluorescence is high and vice-versa. The program measures the percentage of fluorescence that the large spike forms under the corresponding spike of G0-G1, this spike represents pieces of fragmented DNA, consequence of the cleavage of DNA by different enzymes activated during apoptosis.

Structure (SMILES)	apoptosis in colon cancer cells in vitro [1]	in vivo growth of human colon cancer [2]	efficacy of the anticancer agent [3]
CCCC(=O)O [butyric acid]	causes apoptosis	inhibits the in vivo growth	–
O=c1[nH]cc(F)c(=O)[nH]1 [5FU, 5-fluorouracil]	–	–	considerably increased

From US7887794B2, “Lactic acid bacteria and their use in the treatment of cancer” (Bio-K Plus International, Inc., priority 2001, dated 2011)
